According to ChEMBL document CHEMBL1201862, “PubChem BioAssay data set” (2004):
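Cultured in 96-well plates, cells were exposed to test compound for 48 hours across five concentrations. Abbreviation: GI50, concentration required for 50% inhibition of growth.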 Active and inactive are the calls of the source. Cut-off read from the data, not from the text of the source: active = GI50 up to about 1.1 µM and inactive = higher.

Tests used:
Test in all cases: NCI anticancer screen, dose series, 48 h
[1] = test system: COLO 205
[2] = test system: MDA-MB-231
[3] = test system: ACHN
[4] = test system: M14
[5] = test system: SK-MEL-2
[6] = test system: OVCAR-5
[7] = test system: OVCAR-8
[8] = test system: NCI-H23
[9] = test system: CCRF-CEM
[10] = test system: SR
[11] = test system: SW-620
[12] = test system: DU-145
[13] = test system: A549
[14] = test system: MDA-N
[15] = test system: KM12
[16] = test system: 786-0
[17] = test system: BT-549
[18] = test system: Hs-578T

Measured: GI50

COc1ccc2c(c1)CC[C@@H]1[C@@H]2CC[C@]2(C)C(=O)/C(=C/c3ccc(O)c(OC)c3)C[C@@H]12
inactive: [1] > 100 µM | [2] 37.2 µM | [3] > 100 µM | [4] 35.6 µM | [5] 69.2 µM | [6] 76 µM | [7] 91.8 µM | [8] 77.1 µM | [9] 66.2 µM | [10] 32.2 µM | [11] 58.2 µM | [12] 92.9 µM | [13] 51.6 µM | [14] 57.1 µM

Cc1ccccc1CN1CC2=C(CCN(Cc3ccccc3)C2=O)N2CCN=C12
inactive: [15] 46.2 µM | [1] 1.86 µM | [2] 4.45 µM | [3] 6.61 µM | [4] 6.4 µM | [5] 4.81 µM | [6] 8.41 µM | [7] 4.76 µM | [8] 4.62 µM | [16] 8.89 µM | [10] 4.59 µM | [11] 4.5 µM | [17] 14.8 µM | [18] 14.4 µM | [12] 6.14 µM | [13] 4.76 µM

COc1cc(C2C(Cl)C(=O)N2NC(=O)c2ccc(NC(C)=O)cc2)cc(Br)c1O (stereo not drawn)
inactive: [15] > 100 µM | [1] > 100 µM | [3] > 100 µM | [5] > 100 µM | [6] > 100 µM | [7] > 100 µM | [8] > 100 µM | [9] > 100 µM | [10] > 100 µM | [11] > 100 µM | [13] > 100 µM

[O-]/[N+](=N/c1ncc(-c2ccccc2)cn1)c1ncc(-c2ccccc2)cn1
inactive: [15] 67.6 µM | [1] > 100 µM | [2] > 100 µM | [3] > 100 µM | [4] > 100 µM | [5] > 100 µM | [6] > 100 µM | [7] > 96.6 µM | [8] > 100 µM | [16] 99.5 µM | [9] 34.4 µM | [10] 16.4 µM | [11] > 95.7 µM | [18] > 76.6 µM | [12] > 100 µM | [13] > 100 µM | [14] > 100 µM

CCCC(C(=O)Nc1cccc2nc[nH]c12)C(=O)OCC (stereo not drawn)
inactive: [15] > 100 µM | [2] > 100 µM | [3] > 100 µM | [4] > 100 µM | [5] > 100 µM | [6] > 100 µM | [7] > 100 µM | [16] > 100 µM | [10] > 100 µM | [11] > 100 µM | [17] > 100 µM | [18] > 100 µM | [12] > 100 µM | [13] > 100 µM

CNC(=O)N(CCC#N)CCN(C(=O)NC)c1ccccc1
inactive: [15] > 100 µM | [1] > 100 µM | [2] > 100 µM | [3] > 100 µM | [4] > 100 µM | [5] > 100 µM | [6] > 100 µM | [7] > 100 µM | [8] > 100 µM | [16] > 100 µM | [9] > 100 µM | [10] > 100 µM | [11] > 100 µM | [17] > 100 µM | [12] > 100 µM | [13] > 100 µM | [14] > 100 µM

O=C1c2cc3c(cc2CC12Cc1ccc4c(c1C2=O)CCC4)CCC3 (stereo not drawn)
inactive: [2] > 100 µM | [3] > 100 µM | [4] > 100 µM | [5] > 100 µM | [6] > 100 µM | [7] > 100 µM | [8] > 100 µM | [16] 65.6 µM | [9] > 100 µM | [10] > 100 µM | [11] > 100 µM | [18] > 100 µM | [12] > 100 µM | [13] > 100 µM | [14] > 100 µM

CC(CC(C)[C@H]1CCC2[C@H]3C(CC[C@@]21C)[C@@]1(C)CCC(O)C[C@H]1C[C@@H]3O)C(=O)O (stereo partly drawn)
inactive: [15] > 100 µM | [1] > 100 µM | [2] > 100 µM | [3] > 100 µM | [4] > 100 µM | [5] > 100 µM | [6] > 100 µM | [7] > 100 µM | [8] > 100 µM | [16] > 100 µM | [9] > 100 µM | [10] > 100 µM | [11] > 100 µM | [17] > 100 µM | [12] > 100 µM | [13] > 100 µM | [14] > 100 µM

CN1CCCOC(c2ccc([N+](=O)[O-])cc2)O1 (stereo not drawn)
inactive: [15] > 100 µM | [1] > 100 µM | [2] > 100 µM | [3] > 100 µM | [4] > 100 µM | [5] > 100 µM | [6] > 100 µM | [7] > 100 µM | [8] > 100 µM | [16] > 100 µM | [9] > 100 µM | [10] > 100 µM | [11] > 100 µM | [17] > 100 µM | [12] > 100 µM | [13] > 100 µM | [14] > 100 µM

CS/C1=C(\c2ccc(C)cc2)N(c2ccccc2)C(=O)C(=O)N(c2ccccc2)/C(c2ccc(C)cc2)=C(/SC)SS1
inactive: [1] > 100 µM | [2] > 100 µM | [3] > 100 µM | [4] 82.8 µM | [5] > 100 µM | [6] > 100 µM | [7] > 100 µM | [8] > 100 µM | [16] > 100 µM | [9] > 100 µM | [10] > 100 µM | [11] > 100 µM | [12] > 100 µM | [14] > 100 µM

CC(CC[C@@]1(C)C(=O)CCC2O[C@]21C)[C@H]1C[C@@H](c2ccoc2)OC1=O (stereo partly drawn)
inactive: [15] > 100 µM | [1] 24.2 µM | [3] 22.1 µM | [4] 72.9 µM | [5] > 100 µM | [6] 61.1 µM | [8] 61.4 µM | [16] 28.8 µM | [9] 19.6 µM | [10] 97.9 µM | [11] 31.9 µM | [18] 39.3 µM | [12] 57.9 µM | [13] > 100 µM | [14] 57.1 µM

CSc1nncc2[nH]c(C)nc12
inactive: [15] > 100 µM | [1] > 100 µM | [2] > 100 µM | [3] > 100 µM | [4] > 100 µM | [5] > 100 µM | [6] > 100 µM | [7] > 100 µM | [8] > 100 µM | [16] > 100 µM | [9] > 100 µM | [11] > 100 µM | [17] > 100 µM | [13] > 100 µM | [14] > 100 µM

CN(C)/N=C1\CC(c2ccccc2)C(C#N)(C#N)C1(C#N)C#N (stereo not drawn)
inactive: [15] 49.3 µM | [1] 5.56 µM | [2] 21.7 µM | [3] 18.9 µM | [4] 17.4 µM | [5] 21 µM | [6] 25.6 µM | [7] 21.1 µM | [8] 24.1 µM | [16] 17.7 µM | [9] 6.14 µM | [10] 18.5 µM | [11] 6.61 µM | [18] 29.7 µM | [12] 21 µM | [13] 36.4 µM | [14] 20.8 µM

COC(=O)C1CC2CC1C1C2SC(F)(F)C1(F)F (stereo not drawn)
inactive: [15] > 100 µM | [1] > 100 µM | [2] > 100 µM | [3] > 100 µM | [4] > 100 µM | [5] > 100 µM | [6] > 100 µM | [7] > 100 µM | [16] > 100 µM | [10] > 100 µM | [11] > 100 µM | [18] > 100 µM | [12] > 100 µM | [13] > 100 µM | [14] > 100 µM

CSC1=N/C(=C\c2ccc(C)cc2)C(=O)N1CN1CCCCC1
inactive: [15] > 100 µM | [1] 73.1 µM | [2] > 100 µM | [3] 59.6 µM | [4] > 100 µM | [5] > 100 µM | [6] > 100 µM | [7] > 100 µM | [8] > 100 µM | [16] 88.7 µM | [10] 89.7 µM | [11] 44.7 µM | [18] 56.5 µM | [12] > 100 µM | [13] 83.4 µM | [14] > 100 µM

CCOC(=O)C(Cl)(NC(=O)OCc1ccccc1)C(F)(F)F (stereo not drawn)
inactive: [15] > 100 µM | [1] > 100 µM | [2] > 100 µM | [3] > 100 µM | [4] > 100 µM | [5] > 100 µM | [6] > 100 µM | [7] > 100 µM | [8] > 100 µM | [16] > 100 µM | [9] > 100 µM | [11] > 100 µM | [18] > 100 µM | [12] > 100 µM | [13] > 100 µM | [14] > 100 µM

C=CCN1C(=O)/C(=C/c2ccco2)N=C1SC1OC(COC(C)=O)C(OC(C)=O)C(OC(C)=O)C1OC(C)=O (stereo not drawn)
inactive: [15] > 100 µM | [1] > 100 µM | [2] > 100 µM | [3] > 100 µM | [5] > 100 µM | [6] > 100 µM | [7] > 100 µM | [8] > 100 µM | [10] 38.9 µM | [11] > 100 µM | [17] > 100 µM | [12] 80.2 µM
